# Tested on: PI3K
# Experiment: IGF-1-stimulated phospho-AKT Ser473 in MCF7 cells, Western blot
# Format: cell-based, Human
# Details: up to 10 μM, 50 ng/mL IGF-1, 30 min
# Description: Exponentially growing MCF7 cells were exposed to a range of concentrations of NU5455 and NU7441 (0.03–10 μM) for 1 hour. To assess the ability of NU5455 and NU7441 to inhibit autophosphorylation of DNA-PKcs at Ser2056, cells were treated with 10 Gy irradiation and incubated for 30 minutes. Alternatively, to investigate the effects of NU5455 and NU7441 against PI3K-dependent phosphorylation of AKT at Ser473, cells were treated with 50 ng/mL insulin-like growth factor-1 (IGF-1; Invitrogen) for 30 minutes. Cell lysates were prepared for the detection of p–DNA-PKcs Ser2056 and total DNA-PKcs, or p–AKT Ser473 and total AKT, respectively, using Western blotting. […]
# Protein lysates were quantified using the Pierce BCA Protein Assay (ThermoFisher). […]
# Membranes were then washed in TBST and incubated with HRP-conjugated goat anti-mouse or anti-rabbit antibodies (P0447 and P0448 respectively, Dako) in 5% (w/v) milk/TBST at room temperature for 1-2 hours. Conjugates were detected using Clarity Western ECL Substrate (BioRad) and chemiluminescence imaged using the Fuji LAS-3000 Luminescent Image Analyzer System (Fujifilm). […]
# Alternatively, basal pAKT Ser473 levels were subtracted from all other pAKT bands, and pAKT band intensity calculated relative to total AKT expression and given as a percentage relative to IGF-1 stimulated, DMSO-treated cells. […]
compound,measurement,value
CN(C(=O)CN1CCOCC1)c1ccc2sc3c(-c4cccc5c(=O)cc(N6CC7CCC(C6)O7)oc45)cccc3c2c1 [NU5455],inhibition of IGF-stimulated activation of AKT,did not inhibit
